Source: patent US20060128737A1, “Androgen receptor agonists” (KAKEN PHARMACEUTICAL CO., LTD., priority 2003, published 2006)

How the values were obtained:
Assay type in all cases: in vivo, rat
[1] = test system: orchiectomized (ORX) rats; experiment: Test Example 3: effect on prostate, levator ani muscle and femoral bone mineral density in ORX rats (subcutaneous); details: for Femoral bone mineral density / Weight of levator ani muscle / Weight of prostate: 5 days a week, 4 weeks
Method: (§1) Testes were removed from 12-week-old male SD rats. Starting on the next day, the compound of Example 12 or 65 (30 mg/kg) or DHT (0.1, 1, 10 mg/kg) was subcutaneously administered once daily for four consecutive weeks on a 5-day-a-week basis. The Example compounds and DHT were dissolved in dimethyl sulfoxide and diluted 10-fold with olive oil to prepare solutions with various concentrations for use in the test. In an ORX control group, dimethyl sulfoxide as diluted 10-fold with olive oil was used for the test. Rats which had been falsely operated on without orchiectomy were used as a sham control group. On the next day after final administration, the wet weights of the ventral prostate and levator ani muscle were measured and the right femoral bone mineral density was measured by DEXA (double energy X-ray absorption) to evaluate the in vivo efficacy of the compounds of Example 12 and 65.

[2] = test system: orchiectomized (ORX) rats; experiment: Test Example 6: effect of oral administration on prostate, levator ani muscle and femoral bone mineral density in ORX rats; details: for Femoral bone mineral density / Weight of levator ani muscle / Weight of prostate: 7 days a week
Method: (§2) Testes were removed from 12-week-old male SD rats. Starting on the next day, the compound of Example 108 (30 mg/5 ml/kg) was orally administered once daily for four consecutive weeks on a 7-day-a-week basis. As a positive control, methyl testosterone (MT) (100 mg/5 ml/kg) was orally administered once daily on a continuous 7-day-a-week basis. The test compound was suspended in a 0.5% methyl cellulose solution used as a solvent and the suspension was used in the test. In an ORX control group, a 0.5% methyl cellulose solution (5 ml/kg) was administered. Rats which had been falsely operated on without orchiectomy were used as a sham control group. On the next day after final administration, the wet weights of the ventral prostate and levator ani muscle were measured and the right femoral bone mineral density was measured by DEXA (double energy X-ray absorption) to evaluate the in vivo efficacy of the compound of Example 108. The results are shown in Table 20 and in FIGS. 13 to 15.

[3] = test system: orchiectomized (ORX) rats; experiment: Test Example 7: effect of oral administration on prostate, levator ani muscle and femoral bone mineral density in ORX rats; details: for Femoral bone mineral density / Weight of levator ani muscle / Weight of prostate: 7 days a week
Method: as §2, with “129” for “108”, “129.” for “108.”, “21” for “20”, “16” for “13”, “18.” for “15.”

[4] = test system: orchiectomized (ORX) rats; experiment: Test Example 2: effect on prostate, levator ani muscle and femoral bone mineral density in ORX rats (subcutaneous); details: for Femoral bone mineral density / Weight of levator ani muscle / Weight of prostate: 5 days a week, 4 weeks
Method: as §1, with “1 (3, 10, 30” for “12 or 65 (30”, “compound” for “compounds”, “1.” for “12 and 65.”

[5] = test system: orchiectomized (ORX) rats; experiment: Test Example 4: effect on prostate, levator ani muscle and femoral bone mineral density in ORX rats (subcutaneous)
Method: as §1, with “Example 113” for “Example 12”, “or 114” for “or 65”, “DHT (10” for “DHT (0.1, 1, 10”, “test. […]” for “test. Rats which had been falsely operated on without orchiectomy were used as a sham control group.”, “and 114.” for “and 65.”

[6] = test system: orchiectomized (ORX) rats; experiment: Test Example 5: effect of oral administration on prostate, levator ani muscle and femoral bone mineral density in ORX rats
Method: Testes were removed from 12-week-old male SD rats. Starting on the next day, the compound of Example 1 (100 mg/10 ml/kg) was orally administered once daily for four consecutive weeks on a 5-day-a-week basis. As a positive control, testosterone propionate (TP) (10 mg/kg) was subcutaneously administered once daily on a continuous 5-day-a-week basis. The test compound was suspended in a 0.5% methyl cellulose solution used as a solvent whereas TP was dissolved in dimethyl sulfoxide and diluted 10-fold with olive oil for use in the test. In an ORX control group, dimethyl sulfoxide as diluted 10-fold with olive oil was used for the test. Rats which had been falsely operated on without orchiectomy were used as a sham control group. On the next day after final administration, the wet weights of the ventral prostate and levator ani muscle were measured and the right femoral bone mineral density was measured by DEXA (double energy X-ray absorption) to evaluate the in vivo efficacy of the compound of Example 1. The results are shown in Table 19 and in FIGS. 10 to 12.

[7] = 30 mg/kg orally once daily, 4 weeks
[8] = 10 mg/kg sc once daily, 5 days a week, 4 weeks
[9] = 10 mg/kg sc once daily, 5 days a week

CC(C)(CNC(=O)c1ccc(OC(F)(F)F)cc1)[C@H]1Nc2ccc([N+](=O)[O-])cc2[C@H]2OCC[C@H]21 (relative stereo) [Example 65, (3aS*,4S*,9bS*)-N-[2-methyl-2-(8-nitro-2,3,3a,4,5,9b-hexahydro-furo[3,2-c]quinolin-4-yl)propyl]-4-trifluoromethoxybenzamide]
Prostate weight as % of the level of the sham control group ([1]; 30 mg/kg sc): about 70% | Femoral bone mineral density ([1]; 30 mg/kg sc once daily): 120 ± 5 mg/cm^2 | Weight of levator ani muscle ([1]; 30 mg/kg sc once daily): 67 ± 6 mg/100 g body weight | Weight of prostate ([1]; 30 mg/kg sc once daily): 69 ± 10 mg/100 g body weight

CC(=O)Nc1ccc(C(=O)NCC(C)(C)[C@H]2Nc3ccc(C#N)cc3[C@H]3C=CC[C@H]32)cn1 (relative stereo) [Example 108, (3aR*,4S*,9bS*)-6-acetylamino-N-[2-(8-cyano-3a,4,5,9b-tetrahydro-3H-cyclopenta[c]quinolin-4-yl)-2-methyl-propyl]nicotinamide]
Prostate weight as % of the level of the sham control group ([2]; 30 mg/kg orally): about 70% | Femoral bone mineral density [2, 7]: 141 ± 6 mg/cm^2 | Weight of levator ani muscle [2, 7]: 61 ± 6 mg/100 g body weight | Weight of prostate [2, 7]: 67 ± 13 mg/100 g body weight

CC(=O)Nc1ccc(C(=O)NCC(C)[C@H]2Nc3ccc(C#N)cc3[C@H]3OCC[C@H]32)cc1 (relative stereo) [Example 129, (3aS*,4R*,9bS*)-4-acetylamino-N-[2-(8-cyano-2,3,3a,4,5,9b-hexahydro-furo[3,2-c]quinolin-4-yl)propyl]benzamide]
Prostate weight as % of the level of the sham control group ([3]; 30 mg/kg orally): about 85% | Femoral bone mineral density [3, 7]: 145 ± 5 mg/cm^2 | Weight of levator ani muscle [3, 7]: 66 ± 6 mg/100 g body weight | Weight of prostate [3, 7]: 109 ± 66 mg/100 g body weight

C[C@]12CCC(=O)C[C@@H]1CC[C@@H]1[C@@H]2CC[C@]2(C)[C@@H](O)CC[C@@H]12 [DHT, Dihydrotestosterone, reference compound]
Femoral bone mineral density ([4]; 0.1 mg/kg sc once daily): 114 ± 6 mg/cm^2 | Weight of levator ani muscle ([4]; 0.1 mg/kg sc once daily): 39 ± 9 mg/100 g body weight | Weight of prostate ([4]; 0.1 mg/kg sc once daily): 38 ± 7 mg/100 g body weight | Femoral bone mineral density ([4]; 1 mg/kg sc once daily): 115 ± 4 mg/cm^2 | Weight of levator ani muscle ([4]; 1 mg/kg sc once daily): 58 ± 5 mg/100 g body weight | Weight of prostate ([4]; 1 mg/kg sc once daily): 100 ± 9 mg/100 g body weight | Prostate weight as % of the level of the sham control group ([4]; 10 mg/kg sc): about 160% | Femoral bone mineral density ([4]; 10 mg/kg sc once daily): 122 ± 3 mg/cm^2 | Weight of levator ani muscle ([4]; 10 mg/kg sc once daily): 78 ± 6 mg/100 g body weight | Weight of prostate ([4]; 10 mg/kg sc once daily): 166 ± 26 mg/100 g body weight | Femoral bone mineral density ([1]; 0.1 mg/kg sc once daily): 114 ± 6 mg/cm^2 | Weight of levator ani muscle ([1]; 0.1 mg/kg sc once daily): 37 ± 6 mg/100 g body weight | Weight of prostate ([1]; 0.1 mg/kg sc once daily): 34 ± 11 mg/100 g body weight | Femoral bone mineral density ([1]; 1 mg/kg sc once daily): 115 ± 4 mg/cm^2 | Weight of levator ani muscle ([1]; 1 mg/kg sc once daily): 47 ± 3 mg/100 g body weight | Weight of prostate ([1]; 1 mg/kg sc once daily): 81 ± 15 mg/100 g body weight | Prostate weight as % of the level of the sham control group ([1]; 10 mg/kg sc): about 145% | Femoral bone mineral density ([1]; 10 mg/kg sc once daily): 122 ± 3 mg/cm^2 | Weight of levator ani muscle ([1]; 10 mg/kg sc once daily): 80 ± 5 mg/100 g body weight | Weight of prostate ([1]; 10 mg/kg sc once daily): 146 ± 16 mg/100 g body weight | Prostate weight as % of the level of the sham control group ([5]; 10 mg/kg sc): about 140% | Femoral bone mineral density [5, 8]: 148 ± 5 mg/cm^2 | Weight of levator ani muscle [5, 8]: 89 ± 7 mg/100 g body weight | Weight of prostate [5, 8]: 199 ± 27 mg/100 g body weight

C[C@]12CCC(=O)C=C1CC[C@@H]1[C@@H]2CC[C@@]2(C)[C@H]1CC[C@]2(C)O [MT, methyl testosterone, reference compound]
Prostate weight as % of the level of the sham control group ([2]; 100 mg/kg orally): about 120% | Femoral bone mineral density ([2]; 100 mg/kg orally once daily): 146 ± 5 mg/cm^2 | Weight of levator ani muscle ([2]; 100 mg/kg orally once daily): 65 ± 8 mg/100 g body weight | Weight of prostate ([2]; 100 mg/kg orally once daily): 117 ± 18 mg/100 g body weight | Prostate weight as % of the level of the sham control group ([3]; 100 mg/kg orally): about 115% | Femoral bone mineral density ([3]; 100 mg/kg orally once daily): 149 ± 6 mg/cm^2 | Weight of levator ani muscle ([3]; 100 mg/kg orally once daily): 63 ± 5 mg/100 g body weight | Weight of prostate ([3]; 100 mg/kg orally once daily): 143 ± 63 mg/100 g body weight

CCC(=O)O[C@H]1CC[C@H]2[C@@H]3CCC4=CC(=O)CC[C@]4(C)[C@H]3CC[C@]12C [TP, testosterone propionate, reference compound]
Prostate weight as % of the level of the sham control group ([6]; 10 mg/kg sc): about 125% | Femoral bone mineral density [6, 9]: 135 ± 8 mg/cm^2 | Weight of levator ani muscle [6, 9]: 88 ± 9 mg/100 g body weight | Weight of prostate [6, 9]: 204 ± 29 mg/100 g body weight
